From patent US20120324604A1, “PESTICIDAL MIXTURES CONTAINING ISOXAZOLINE DERIVATIVES AND A FUNGICIDE” (priority 2010, published 2012)

Tests used:
Format in all cases: cell-based
[1] = test system: Mycosphaerella arachidis (syn. Cercospora arachidicola); assay: Mycosphaerella arachidis (Brown Leaf Spot of Groundnut) growth inhibition, microtiter plate, photometric; settings: alone
Protocol: Mycosphaerella arachidis (syn. Cercospora arachidicola), Brown Leaf Spot of Groundnut (Peanut):
(§1) Conidia of the fungus from cryogenic storage were directly mixed into nutrient broth (potato dextrose broth). After placing a (DMSO) solution of the test compounds into a microtiter plate (96-well format) the nutrient broth containing the fungal spores was added.

Botrvtis cinerea = Botrvtis cinerea (Gray Mould) growth inhibition, microtiter plate, photometric; settings: alone
Protocol: Botrvtis cinerea (Gray Mould):
as §1

Rhizoctonia solani = Rhizoctonia solani (Foot Rot, Damping-Off) growth inhibition, microtiter plate, photometric; settings: applied alone
Protocol: Rhizoctonia solani (Foot Rot, Damping-Off):
Mycelial fragments of the fungus from cryogenic storage were directly mixed into nutrient broth (potato dextrose broth). After placing a (DMSO) solution of the test compounds into a microtiter plate (96-well format) the nutrient broth containing the fungal spores was added.

Pythium ultimum = Pythium ultimum (Damping Off) growth inhibition, microtiter plate, photometric
Protocol: Pythium ultimum (Damping Off):
Mycelial fragments of the fungus, prepared from a fresh liquid culture, were directly mixed into nutrient broth (potato dextrose broth). After placing a (DMSO) solution of the test compounds into a microtiter plate (96-well format) the nutrient broth containing the fungal spores was added.

Septoria tritici = Septoria tritici (Leaf Blotch) growth inhibition, microtiter plate, photometric; settings: alone
Protocol: Septoria tritici (Leaf Blotch):
as §1

Fusarium culmorum = Fusarium culmorum (Root Rot) growth inhibition, microtiter plate, photometric; settings: single compound, 48 hrs, 24° C.
Protocol: Fusarium culmorum (Root Rot):
as §1

[2] = test system: Glomerella lagenarium (syn. Colletotrichum lagenarium); assay: Glomerella lagenarium (Anthracnose of Cucurbits) growth inhibition, microtiter plate, photometric; settings: alone
Protocol: Glomerella lagenarium (syn. Colletotrichum lagenarium), Anthracnose of Cucurbits:
as §1

Measured: AVERAGE DEAD IN %

Cc1cc(C2=NOC(c3cc(Cl)cc(Cl)c3)(C(F)(F)F)C2)ccc1C(=O)NC1CS(=O)(=O)C1 (racemic) [A8]
0%: [1]; 0.0390625 PPM AI | [1]; 0.078125 PPM AI | [1]; 0.15625 PPM AI | [1]; 0.3125 PPM AI | [1]; 0.625 PPM AI | [1]; 1.25 PPM AI | [1]; 2.5 PPM AI | [1]; 5 PPM AI | [1]; 10 PPM AI | [1]; 20 PPM AI | Botrvtis cinerea; 0.078125 ppm AI | Botrvtis cinerea; 0.15625 ppm AI | Botrvtis cinerea; 0.3125 ppm AI | Botrvtis cinerea; 0.625 ppm AI | Botrvtis cinerea; 1.25 ppm AI | Botrvtis cinerea; 2.5 ppm AI | Botrvtis cinerea; 5 ppm AI | Botrvtis cinerea; 10 ppm AI | Botrvtis cinerea; 20 ppm AI | Rhizoctonia solani; 0.0390625 ppm AI | Rhizoctonia solani; 0.078125 ppm AI | Rhizoctonia solani; 0.15625 ppm AI | Rhizoctonia solani; 0.3125 ppm AI | Rhizoctonia solani; 0.625 ppm AI | Rhizoctonia solani; 1.25 ppm AI | Rhizoctonia solani; 2.5 ppm AI | Rhizoctonia solani; 5 ppm AI | Rhizoctonia solani; 10 ppm AI | Rhizoctonia solani; 20 ppm AI | Pythium ultimum; single compound at 0.078125 ppm AI | Pythium ultimum; single compound at 0.15625 ppm AI | Pythium ultimum; single compound at 0.3125 ppm AI | Pythium ultimum; single compound at 0.625 ppm AI | Pythium ultimum; single compound at 1.25 ppm AI | Pythium ultimum; single compound at 2.5 ppm AI | Pythium ultimum; single compound at 5 ppm AI | Pythium ultimum; single compound at 10 ppm AI | Pythium ultimum; single compound at 20 ppm AI | Septoria tritici; 0.0390625 ppm AI | Septoria tritici; 0.078125 ppm AI | Septoria tritici; 0.15625 ppm AI | Septoria tritici; 0.3125 ppm AI | Septoria tritici; 0.625 ppm AI | Septoria tritici; 1.25 ppm AI | Septoria tritici; 2.5 ppm AI | Septoria tritici; 5 ppm AI | Septoria tritici; 10 ppm AI | Septoria tritici; 20 ppm AI | Fusarium culmorum; 2.5 PPM AI | Fusarium culmorum; 5 PPM AI | Fusarium culmorum; 10 PPM AI | Fusarium culmorum; 20 PPM AI | [2]; 0.078125 ppm AI | [2]; 0.15625 ppm AI | [2]; 0.3125 ppm AI | [2]; 0.625 ppm AI | [2]; 1.25 ppm AI | [2]; 2.5 ppm AI | [2]; 5 ppm AI | [2]; 10 ppm AI | [2]; 20 ppm AI
